Experimental findings from patent US20220119446A1, “BIOMARKERS AND TREATMENT OF NEURONAL INJURY AND NEURODEGENERATION” (Board of Supervisons of Louisiana State University and …, priority 2018, published 2022) are described below.

One test deals with FZD5. In words: SYBR green real-time PCR of Wnt5a receptors/co-receptors in RPE cells under UOS. It counts as cell-based, human.
The next test deals with rats subjected to MCAo. In words: Transient middle cerebral artery occlusion (MCAo): behavioral tests, neurological score. It counts as in vivo, rat. As to conditions: for neuronal damage / neuroprotection in stroke model (tissue and behavioral): rat MCAo, summary statements. The text has this: In certain embodiments, Male Sprague-Dawley rats (290-320 g; Charles River Lab, Wilmington, Mass., USA) are used for in vivo studies. For all surgical procedures, animals can be fasted and anesthesia can be induced with 3.5% isoflurane and 70% nitrous oxide and 30% oxygen. Animals can be orotracheally intubated; given atropine for secretions, pancuronium for immobilization; ventilated mechanically on a humidified mixture of 70% nitrous oxide, 1.0-1.5% isoflurane and a balance of oxygen. A femoral artery and vein can be catheterized for continuous blood pressure monitoring and periodic blood sampling for arterial gases and pH. PCO2 can be maintained at 35-40 mm Hg and P02 at 105-120 mm Hg by ventilator adjustments. Rectal temperature can be measured with a thermistor and maintained with a heating lamp at 37.0-37.5° C. Cranial (temporalis muscle) temperature also can be monitored and regulated with a separate warming lamp at 36.2-36.7° C.
The right MCA can be occluded for 2 h by intraluminal filament, as described previously (Belayev et al. 2011). Briefly, the right common carotid artery (CCA) and external carotid artery (ECA) can be exposed through midline neck incision, and then completely isolated from the surrounding nerves. The occipital branches of the ECA and pterygopalatine artery can be ligated. A 4-cm of 3-0 nylon filament, coated with poly-L-lysine can be advanced to the origin of MCA through the proximal ECA via internal carotid artery. The filament can be inserted 20 to 22 mm from the bifurcation of the CCA, according to the animal's body weight. The neck incision can then be closed, and the rats can be returned to their cages. […]
In certain embodiments, behavioral tests are conducted before, during MCAo (at 60 min), and then at 24 h, 48 h, 72 h, or 7 days after MCAo by an investigator blinded to the experimental groups. […] In embodiments, the severity of stroke injury is assessed by behavioral examination of each rat at 60 min after onset of MCAo. […]

The next test deals with Wnt5a. Nature of the test: Transient MCAo: Wnt5a protein in plasma. It counts as in vivo. As to conditions: rat MCAo, days 1, 3 and 7 post-surgery. The method, then: In various exemplary embodiments, docosahexaenoic acid (DHA; 5 mg/kg, Cayman, Ann Arbor, Mich., USA), Box5 (1 mg/kg, Millipore-Sigma, Burlington, Mass.) or vehicle (0.9% saline) is administered intravenously into the femoral vein at a constant rate over 3 min using an infusion pump at 3 h after onset of MCAo. In embodiments, for western-blot study, rats are sacrificed on days 1, 3, or 7; for real-time PCR study, rats are sacrificed on days 1, 2, or 3.
A, Timeline of MCAo. DHA, Box5 or saline were administered at 1 h after 2 h of MCAo and rats were sacrificed on days 1, 2, 3 or 7. B, Effect of DHA on neurological recovery. Total score (normal score=0, maximal deficit=12), tactile placing (dorsal, lateral, proprioceptive reactions; normal score=0, maximal deficit=2) after MCAo. DHA or saline was administered at 1 h after 2 h of MCAo and rats sampled on days 1, 2, 3 or 7. […] C, Total neurological score at days 1, 3 and 7; D, MRI quantification at day 7 of the lesion volume depicting total, core and penumbra and; E, representative coronal sections showing T2 weighted image (T2WI), the defined core and penumbra region (red and blue, respectively) in the second column; and a 3D reconstruction of the lesion. […] J, Quantification of Wnt5a and NF-κB linked gene expression in MCAo. […] The mRNA were measured using SYBR green RT-PCR. […]

Entries after “also recorded” stand apart in the source; their conditions may differ. * marks the point of attachment. Boc = CC(C)(C)OC(=O)*

Procedure for FZD5: Cell samples, total RNA was extracted by RNeasy Mini Kit (QIAGEN) following manufacturer's protocol. The purity and concentration of RNA were determined by NanoDrop ND-1000 Spectrophotometer (Thermo Fisher Scientific). cDNA first strand was obtained from one microgram of total RNA using iScript™ Reverse Transcription Supermix (Bio-Rad Laboratories, CA, USA). The resulting cDNA was used as template SYBR-green or Eva-green based real-time PCR quantification using SsoAdvance Universal Supermix (Bio-Rad Laboratories). Data was collected and analyzed using CFX Manager 3.0 software, the ΔΔCt method. Melting curve was produced for every run to assure a unique amplified product per primer set.

Consider `CC/C=C\C[C@H](O)\C=C/C=C/C=C/[C@H](O)C/C=C\C/C=C\CCC(=O)O` [NPD1, 10R,17S-dihydroxy-docosa-4Z,7Z,11E,13E,15Z,19Z-hexaenoic acid], for which the FZD5 expression entry with FZD5 (ARPE-19 cells, UOS gives 3-fold increase (FIG. 1F)) is “counteracted this effect”. The “FZD5 mRNA” value with FZD5 (hpRPE exposed to UOS, UOS gives 2-fold rise) is “downregulated”. The ROR1 expression entry in the test on FZD5 (reduced under UOS) is listed as “re-established”.

As for “t-Boc-NH-Met-Asp-Gly-Cys-Glu-Leu-CO2H (Boc-MDGCEL-OH) [Box5]”, the “neuronal damage / neuroprotection in stroke model (tissue and behavioral)” value with rats subjected to MCAo is “significantly decreased; also recorded: beneficious at the behavioral level as well as in the reduction of stroke damage; also recorded: protection at the neurological/behavioral level as well as by reduction of stroke damage”; in the test on rats subjected to MCAo (listed as BOX5), “remarkable neuroprotection”. Further, in the test on rats subjected to MCAo (rat, 2 h MCAo, IV 1 h later, DHA 5 mg/kg or Box5 (1 mg/kg; 400 μg), days 1, 2, 3, 7, versus saline), the “neurological score (total, tactile and proprioceptive placing)” value is “remarkable similarity to that obtained by DHA treatment; also recorded: improvement in neurological score; also recorded: resembling DHA treatment; also recorded: neurological protection remarkable similar to that obtained by DHA treatment”. Further, the “plasma (blood) Wnt5a protein” value in the test on Wnt5a is “failed to reduce the plasma Wnt5a content; also recorded: did not affect the levels of Wnt5a; also recorded: did not affect Wnt5a abundance”.
